What was measured:
HSD17B13 = HSD17B13 (Homo sapiens (Human), UniProt Q7Z5P4); test: LC/MS estrone detection assay for HSD17B13 activity (estradiol to estrone); type: biochemical; conditions: estradiol substrate; for Ki: LCMS, read-out: HSD17B13 Inhibition_Estradiol Substrate_LCMS: Ki; for IC50: LC-MS/MS estrone detection
Experimental: The liquid chromatography/mass spectrometry (LC/MS) estrone detection assay monitors the conversion of estradiol to estrone by HSD17B13. This assay was undertaken in a 96 wp format (Eppendorf deep well Plate 96/500) in an 80 μl reaction volume containing: 4 μM of Estradiol (E2; Cayman; Ser. No. 10/006,315), 6 mM NAD+(Sigma; #N0623) and 30 nM HSD17B13 enzyme (in-house; E. coli expressed His-tagged, purified, soluble protein) in a reaction containing 1M potassium phosphate buffer pH 7.4, with 0.5% vehicle (DMSO). Reactions were incubated for 2 hours at 26.5° C., and estradiol (E2) conversion to estrone (E1) was quantitated by LC-MS/MS based analyte detection for both E2 and E1 using LCMS grade reagents.
Reactions were terminated by the addition of two volumes of acetonitrile (MeCN; LCMS grade; CAS #75/05/8) containing deuterated (D4)-E1 used as internal standard (Clear Synth; #CS-T-54273; 500 ng/mL final concentration). Samples were applied to pre-prepared Bond Elut-C18 extraction cartridges (3 mL; Agilent; Ser. No. 12/102,028), washed and eluted in MeCN. Eluates were dried under nitrogen and re-suspended in 60% methanol (LCMS grade methanol; CAS #67/56/1) before submission for analysis. Aqueous linearity for E2 and E1 were included for quantification.
Analysis of samples was undertaken on a XBridge BEH C18 column (Waters; #186003033) using 0.1% Diethyl Amine in MeCN (mobile phase A; DEA CAS #109-89-7) and 0.1% Diethyl Amine in milli-Q water (mobile phase B) in a 3 min gradient allowing 25% B. Analytes were detected in negative mode using MRM analysis, with E2 having a RT of 1.85 min and E1 having a RT of 2 min. Activity of the enzyme, in the absence of NAD+, was used to evaluate specificity of conversion. Enzyme activity in the presence of test samples was expressed as a percentage of the uninhibited enzyme activity, and plotted versus inhibitor concentration. Non-linear regression was performed using a four-parameter logistic model and GraphPad Prism software (GraphPad Software, La Jolla, CA). All assessments were undertaken in duplicate evaluations and pooled during extraction process and subsequently injected as duplicates for LC-MS/MS analysis.

HSD17B14 = HSD17B14 (Homo sapiens (Human), UniProt Q9BPX1); test: LC/MS estrone detection assay for HSD17B14 activity (estradiol to estrone); type: biochemical; conditions: selectivity for HSD17B13 over HSD17B14
Chain of HSD17B14 (Q9BPX1 whole entry): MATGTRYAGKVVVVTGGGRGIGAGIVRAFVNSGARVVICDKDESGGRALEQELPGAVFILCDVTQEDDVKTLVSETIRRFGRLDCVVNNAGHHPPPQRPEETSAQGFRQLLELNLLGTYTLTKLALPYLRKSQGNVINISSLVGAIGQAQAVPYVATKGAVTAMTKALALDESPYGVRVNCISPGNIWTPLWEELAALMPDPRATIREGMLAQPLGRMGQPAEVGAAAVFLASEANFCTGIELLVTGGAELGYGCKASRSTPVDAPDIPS
Experimental: The liquid chromatography/mass spectrometry (LC/MS) estrone detection assay monitors the conversion of estradiol to estrone by HSD17B14. This assay was undertaken in a 96 well plates (Eppendorf deep well), in an 80 μl reaction volume containing: 8 μM of estradiol (E2; Cayman); 4 mM NAD+(Sigma); 120 nM HSD17B14 enzyme (in-house E. coli expressed His-tagged, purified, soluble protein); 1M potassium phosphate buffer pH 7.4, and 1.2% vehicle (DMSO). Reactions were incubated for 2 hours at 37° C. Estradiol (E2) conversion to estrone (E1) was quantitated by LC-MS/MS based analyte detection for E1 using LCMS grade reagents.
Reactions were terminated by the addition of two volumes of acetonitrile (MeCN; LCMS grade) containing deuterated (D4)-E1 used as internal standard (Clear Synth; 500 ng/mL final concentration). Samples were applied to pre-prepared Bond Elut-C18 extraction cartridges (3 mL; Agilent). The cartridges were washed with 1.5 mL water followed by 1.5 mL 5% aqueous methanol, and dried for 5 minutes under vacuum. They were then eluted with 4.5 mL MeCN. The eluates were dried under nitrogen and re-suspended in 200 μL of 60% methanol (LCMS grade) before submission for analysis. Standard curves of E2 and E1 in 4% DMSO were included for quantification.
Analysis of samples was performed on a XBridge BEH C18 column (Waters) using 0.1% Diethyl Amine in MeCN (mobile phase A) and 0.1% Diethyl Amine in milli-Q water (mobile phase B) in a 3 min gradient from 0-25% B. Analytes were detected in negative mode using MRM analysis, with E2 having a RT of 1.89 min and E1 having a RT of 2.07 min. Activity of the enzyme in the absence of NAD+ was used to evaluate specificity of conversion. Enzyme activity in the presence of test samples was expressed as a percentage of the uninhibited enzyme in the presence of 1.2% DMSO vehicle only, and plotted versus inhibitor concentration. Non-linear regression was performed using a four-parameter logistic model and GraphPad Prism software. All assessments were undertaken in duplicate evaluations, which were pooled during the extraction process and subsequently injected as duplicates for LC-MS/MS analysis.

Chain of HSD17B13 (Q7Z5P4 20-300): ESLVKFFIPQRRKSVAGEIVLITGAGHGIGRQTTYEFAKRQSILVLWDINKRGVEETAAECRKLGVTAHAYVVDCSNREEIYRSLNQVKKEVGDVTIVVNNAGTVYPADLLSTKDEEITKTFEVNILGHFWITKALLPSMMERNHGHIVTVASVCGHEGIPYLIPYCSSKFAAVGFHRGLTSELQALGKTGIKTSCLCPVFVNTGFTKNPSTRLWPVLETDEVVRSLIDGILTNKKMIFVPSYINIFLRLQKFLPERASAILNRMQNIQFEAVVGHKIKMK

| SMILES | Ki (HSD17B13) | HSD17B14 fold selectivity (HSD17B14) | IC50 (HSD17B13) |
| --- | --- | --- | --- |
| CC(NC(=O)c1nc(-c2cccnc2)sc1NC(=O)c1cc(Cl)c(O)c(Cl)n1)c1ccccc1C(F)(F)F (stereo not shown) [Example 103] | ≤ 50 nM | >1850 fold | – |
| CC(NC(=O)c1nc(-c2ccccc2)sc1NC(=O)c1cc(Cl)c(O)c(Cl)n1)c1ccccc1C(F)(F)F (stereo not shown) [Example 99] | ≤ 50 nM | 253 fold | – |
| O=C(Nc1sc(-c2cnccn2)nc1C(=O)NCc1ccccc1C(F)(F)F)c1cc(Cl)c(O)c(Cl)c1 [Example 100] | ≤ 50 nM | >843 fold | – |
| O=C(Nc1sc(C2CC2)nc1C(=O)NCc1ccccc1C(F)(F)F)c1cc(Cl)c(O)c(Cl)n1 [Example 59, 2-cyclopropyl-5-(4,6-dichloro-5-hydroxypicolinamido)-N-(2-(trifluoromethyl)benzyl)thiazole-4-carboxamide] | ≤ 50 nM | >331 fold | – |
| O=C(Nc1sc(-c2cnccn2)nc1C(=O)NCc1ccccc1C(F)(F)F)c1cc(Cl)c(O)c(Cl)n1 [Example 101] | ≤ 50 nM | >142 fold | – |
| O=C(Nc1sc(-c2ccccc2)nc1C(=O)NCC(F)(F)F)c1cc(Cl)c(O)c(Cl)n1 [Example 72] | 100 to 500 nM | – | – |
| O=C(Nc1scnc1C(=O)NC1(c2ccccc2C(F)(F)F)CC1)c1cc(Cl)c(O)c(Cl)n1 [Example 24, 5-(4,6-dichloro-5-hydroxypicolinamido)-N-(1-(2-(trifluoromethyl)phenyl)cyclopropyl)thiazole-4-carboxamide] | – | – | 100 to 500 nM |
| Cc1nc(C(=O)NCc2ccccc2OC(F)(F)F)c(NC(=O)c2cc(Cl)c(O)c(Cl)c2)s1 [Example 21, 5-(3,5-dichloro-4-hydroxybenzamido)-2-methyl-N-(2-(trifluoromethoxy)benzyl)thiazole-4-carboxamide] | – | – | 100 to 500 nM |
| Cn1c(=O)n(Cc2ccccc2C(F)(F)F)c(=O)c2c(NC(=O)c3cc(Cl)c(O)c(Cl)n3)cccc21 [Example 20, 4,6-dichloro-5-hydroxy-N-(1-methyl-2,4-dioxo-3-(2-(trifluoromethyl)benzyl)-1,2,3,4-tetrahydroquinazolin-5-yl)picolinamide] | – | – | 100 to 500 nM |
| Cn1cc(NC(=O)c2cc(Cl)c(O)c(Cl)n2)c(C(=O)NCc2ccccc2OC(F)(F)F)n1 [Example 4, 4,6-dichloro-5-hydroxy-N-(1-methyl-3-((2-(trifluoromethoxy)benzyl)carbamoyl)-1H-pyrazol-4-yl)picolinamide] | – | – | 100 to 500 nM |
| O=C(Nc1ncc(C(=O)NCc2ccccc2C(F)(F)F)s1)c1cc(Cl)c(O)c(Cl)n1 [Example 28, 2-(4,6-dichloro-5-hydroxypicolinamido)-N-(2-(trifluoromethyl)benzyl)thiazole-5-carboxamide] | – | – | 1000 to 10000 nM |
| Cc1nc2c(F)ccc(NC(=O)c3cc(Cl)c(O)c(Cl)c3)c2c(=O)n1[C@H]1CC[C@@H]1c1ccccc1 [Example 16, 3,5-dichloro-N-(8-fluoro-2-methyl-4-oxo-3-((1S,2R)-2-phenylcyclobutyl)-3,4-dihydroquinazolin-5-yl)-4-hydroxybenzamide] | – | – | ≤ 100 nM |
| O=C(Nc1nn(C2CC2)cc1C(=O)NCc1ccccc1C(F)(F)F)c1cc(Cl)c(O)c(Cl)n1 [Example 54, 4,6-dichloro-N-(1-cyclopropyl-4-((2-(trifluoromethyl)benzyl)carbamoyl)-1H-pyrazol-3-yl)-5-hydroxypicolinamide] | – | – | 1000 to 10000 nM |
| O=C(Nc1sc(C2CCCCC2)nc1C(=O)NCc1ccccc1C(F)(F)F)c1cc(Cl)c(O)c(Cl)c1 [Example 83] | ≤ 50 nM | – | – |

Second part, the compound after the results:

| Ki (HSD17B13) | HSD17B14 fold selectivity (HSD17B14) | IC50 (HSD17B13) | SMILES |
| --- | --- | --- | --- |
| ≤ 50 nM | >1230 fold | – | CC(NC(=O)c1nc(-c2cccnc2)sc1NC(=O)c1cc(Cl)c(O)c(Cl)c1)c1ccccc1C(F)(F)F (stereo not shown) [Example 102] |
| ≤ 50 nM | 772 fold | – | CS(=O)(=O)c1cccc(-c2nc(C(=O)NCc3ccccc3C(F)(F)F)c(NC(=O)c3cc(Cl)c(O)c(Cl)c3)s2)c1 [Example 97] |
| ≤ 50 nM | 688 fold | – | O=C(Nc1sc(-c2ccccc2Cl)nc1C(=O)NCc1ccccc1C(F)(F)F)c1cc(F)c(O)c(Cl)c1 [Example 89] |
| ≤ 50 nM | 928 fold | – | CS(=O)(=O)c1cccc(-c2nc(C(=O)NCc3ccccc3C(F)(F)F)c(NC(=O)c3cc(Cl)c(O)c(Cl)n3)s2)c1 [Example 98] |
| – | – | 100 to 500 nM | Cc1nc(C(=O)NCc2ccccc2C(F)(F)F)c(NC(=O)c2cc(Cl)c(O)c(Cl)n2)s1 [Example 26, 5-(4,6-dichloro-5-hydroxypicolinamido)-2-methyl-N-(2-(trifluoromethyl)benzyl)thiazole-4-carboxamide] |
| – | – | 500 to 1000 nM | O=C(Nc1scnc1C(=O)N1CCC(C(F)(F)F)CC1)c1cc(Cl)c(O)c(Cl)n1 [Example 44, 4,6-dichloro-5-hydroxy-N-(4-(4-(trifluoromethyl)piperidine-1-carbonyl)thiazol-5-yl)picolinamide] |
| – | – | 100 to 500 nM | O=C(Nc1cccnc1C(=O)NCc1ccccc1OC(F)(F)F)c1cc(Cl)c(O)c(Cl)n1 [Example 52, 4,6-dichloro-5-hydroxy-N-(2-((2-(trifluoromethoxy)benzyl)carbamoyl)pyridin-3-yl)picolinamide] |
| – | – | 100 to 500 nM | Cc1ccc(NC(=O)c2cc(Cl)c(O)c(Cl)c2)c2c(=O)n(C3CCC3c3ccccc3C(F)(F)F)c(C)nc12 (stereo not shown) [Example 17, 3,5-dichloro-N-(2,8-dimethyl-4-oxo-3-(2-(2-(trifluoromethyl)phenyl)cyclobutyl)-3,4-dihydroquinazolin-5-yl)-4-hydroxybenzamide] |
| – | – | 500 to 1000 nM | Cn1cc(C(=O)NCCC(C)(C)C)c(NC(=O)c2cc(Cl)c(O)c(Cl)c2)n1 [Example 53, 3-(3,5-dichloro-4-hydroxybenzamido)-N-(3,3-dimethylbutyl)-1-methyl-1H-pyrazole-4-carboxamide] |
| ≤ 50 nM | >980 fold | – | O=C(Nc1sc(-c2ccccc2F)nc1C(=O)NCc1ccccc1C(F)(F)F)c1cc(Cl)c(O)c(Cl)n1 [Example 60, 5-(4,6-dichloro-5-hydroxypicolinamido)-2-(2-fluorophenyl)-N-(2-(trifluoromethyl)benzyl) thiazole-4-carboxamide] |
| – | – | 100 to 500 nM | CC(C)CCNC(=O)c1ncsc1NC(=O)c1cc(Cl)c(O)c(Cl)n1 [Example 39, 5-(4,6-dichloro-5-hydroxypicolinamido)-N-isopentylthiazole-4-carboxamide] |
| ≤ 50 nM | – | – | O=C(Nc1sc(-c2ccccc2F)nc1C(=O)NCC12CC(C1)C2)c1cc(F)c(O)c(Cl)c1 [Example 106, N-(bicyclo[1.1.1]pentan-1-ylmethyl)-5-(3-chloro-5-fluoro-4-hydroxybenzamido)-2-(2-fluorophenyl)thiazole-4-carboxamide] |
| – | – | 100 to 500 nM | O=C(Nc1nn(-c2ccccc2)cc1C(=O)NCc1ccccc1C(F)(F)F)c1cc(Cl)c(O)c(Cl)n1 [Example 8, 4,6-dichloro-5-hydroxy-N-(1-phenyl-4-((2-(trifluoromethyl)benzyl)carbamoyl)-1H-pyrazol-3-yl)picolinamide] |

Source: patent US20250100993A1, “2-SUBSTITUTED THIAZOLE HSD17B13 INHIBITORS AND USES THEREOF” (Inipharm, Inc., priority 2022, published 2025)
